Results on 26 molecules are retold here after patent US11345681B1, “Inhibitors of fibroblast growth factor receptor kinases” (Kinnate Biopharma Inc., priority 2020, dated 2022).

Like-named read-outs stand apart in the source and are kept apart here.

This experiment concerns the target Wild type FGFR2 (Homo sapiens (Human), UniProt P21802). Nature of the experiment: FGFR2 kinase assay (fluorescence-based microfluidic mobility shift assay). It is filed as biochemical.
Where [1] appears, read: wild type FGFR2 0.06 nM, 100 μM ATP, 80 minutes at room temperature, class symbols.

Sequence of Wild type FGFR2 (P21802 22-821): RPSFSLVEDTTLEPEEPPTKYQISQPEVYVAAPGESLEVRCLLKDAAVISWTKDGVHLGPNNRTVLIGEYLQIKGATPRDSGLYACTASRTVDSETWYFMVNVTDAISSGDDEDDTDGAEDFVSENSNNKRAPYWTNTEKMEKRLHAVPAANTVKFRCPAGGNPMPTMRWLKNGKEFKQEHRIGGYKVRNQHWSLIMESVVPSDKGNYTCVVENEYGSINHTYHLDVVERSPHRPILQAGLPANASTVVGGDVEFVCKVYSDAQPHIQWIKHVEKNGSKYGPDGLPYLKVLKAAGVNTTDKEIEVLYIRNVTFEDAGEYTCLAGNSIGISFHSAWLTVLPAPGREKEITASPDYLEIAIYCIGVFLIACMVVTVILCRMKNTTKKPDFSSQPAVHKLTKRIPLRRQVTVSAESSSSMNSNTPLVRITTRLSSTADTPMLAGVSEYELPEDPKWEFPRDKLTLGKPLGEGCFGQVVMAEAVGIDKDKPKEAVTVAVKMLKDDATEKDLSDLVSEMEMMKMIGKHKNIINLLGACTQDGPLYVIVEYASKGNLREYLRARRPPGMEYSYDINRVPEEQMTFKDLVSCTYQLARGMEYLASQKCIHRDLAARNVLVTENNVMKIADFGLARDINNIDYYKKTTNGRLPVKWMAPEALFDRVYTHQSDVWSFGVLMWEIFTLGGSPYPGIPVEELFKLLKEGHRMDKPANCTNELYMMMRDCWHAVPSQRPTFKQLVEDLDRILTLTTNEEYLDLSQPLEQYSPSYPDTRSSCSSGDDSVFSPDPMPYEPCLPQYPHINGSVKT

Regarding `C=CC(=O)N1C[C@@H](n2nc(C#Cc3c(F)c(F)c4c(ncn4C4CC4)c3F)c(C(N)=O)c2NC)C[C@@H]1COC` [Example 153, 3-[2-(1-cyclopropyl-4,6,7-trifluoro-1,3-benzodiazol-5-yl)ethynyl]-1-[(3S,5R)-5-(methoxymethyl)-1-(prop-2-enoyl)pyrrolidin-3-yl]-5-(methylamino)pyrazole-4-carboxamide], the IC50 under setting [1] is ≤ 100 nM.
Still for that read-out and setting: in the case of `C=CC(=O)N1C[C@@H](n2nc(C#Cc3c(Cl)cc4c(ncn4C)c3F)c(C(N)=O)c2NC)C[C@@H]1COC` [Example 100, 3-[2-(6-Chloro-4-fluoro-1-methyl-1,3-benzodiazol-5-yl)ethynyl]-1-[(3S,5R)-5-(methoxymethyl)-1-(prop-2-enoyl)pyrrolidin-3-yl]-5-(methylamino)pyrazole-4-carboxamide] it was ≤ 100 nM; in that of `C=CC(=O)N1CC[C@H](n2nc(C#Cc3cc4ncn(C)c4c(F)c3Cl)c(C(N)=O)c2NC)C1` [Example 142, 3-[2-(6-Chloro-7-fluoro-1-methyl-1,3-benzodiazol-5-yl)ethynyl]-5-(methylamino)-1-[(3S)-1-(prop-2-enoyl)pyrrolidin-3-yl]pyrazole-4-carboxamide], ≤ 100 nM; in that of `C=C(F)C(=O)N1C[C@@H](n2nc(C#Cc3cc4ncn(CC)c4cc3Cl)c(C(N)=O)c2NC)C[C@@H]1COC` [Example 129, 3-[2-(6-Chloro-1-ethyl-1,3-benzodiazol-5-yl)ethynyl]-1-[(3S,5R)-1-(2-fluoroprop-2-enoyl)-5-(methoxymethyl)pyrrolidin-3-yl]-5-(methylamino)pyrazole-4-carboxamide], 100 to 1000 nM.
On the same count and under the same terms, in the case of `C=CC(=O)N1C[C@@H](n2nc(C#Cc3cc4ncc(C)cc4cc3Cl)c(C(N)=O)c2NC)C[C@@H]1COC` [Example 258, 3-[2-(6-Chloro-3-methylquinolin-7-yl)ethynyl]-1-[(3S,5R)-5-(methoxymethyl)-1-(prop-2-enoyl)pyrrolidin-3-yl]-5-(methylamino)pyrazole-4-carboxamide] it was ≤ 100 nM; in that of `C=CC(=O)N1C[C@@H](n2nc(C#Cc3cc4nc[nH]c4cc3F)c(C(N)=O)c2NC)C[C@@H]1COC(F)(F)F` [Example 86, 3-[2-(6-Fluoro-1H-1,3-benzodiazol-5-yl)ethynyl]-5-(methylamino)-1-[(3S,5R)-1-(prop-2-enoyl)-5-[(trifluoromethoxy)methyl]pyrrolidin-3-yl]pyrazole-4-carboxamide], ≤ 100 nM.
As to `C=CC(=O)N1C[C@@H](n2nc(C#Cc3c(F)cc4c(ncn4CC)c3F)c(C(N)=O)c2NCCOC)C[C@@H]1COC` [Example 117, 3-[2-(1-Ethyl-4,6-difluoro-1,3-benzodiazol-5-yl)ethynyl]-5-[(2-methoxyethyl)amino]-1-[(3S,5R)-5-(methoxymethyl)-1-(prop-2-enoyl)pyrrolidin-3-yl]pyrazole-4-carboxamide], the IC50 under setting [1] was ≤ 100 nM.
As to `C=CC(=O)N1C[C@@H](n2nc(C#Cc3c(F)c(F)c4c(nc(C)n4C)c3F)c(C(N)=O)c2NC)C[C@@H]1COC` [Example 149, 1-[(3S,5R)-5-(Methoxymethyl)-1-(prop-2-enoyl)pyrrolidin-3-yl]-5-(methylamino)-3-[2-(4,6,7-trifluoro-1,2-dimethyl-1,3-benzodiazol-5-yl)ethynyl]pyrazole-4-carboxamide], the IC50 under setting [1] was ≤ 100 nM.
As to `C=CC(=O)N1C[C@@H](n2nc(C#Cc3cnc4c(c3)ncn4C)c(C(N)=O)c2NC)C[C@@H]1COC` [Example 23, 1-((3S,5R)-1-acryloyl-5-(methoxymethyl)pyrrolidin-3-yl)-3-((3-methyl-3H-imidazo[4,5-b]pyridin-6-yl)ethynyl)-5-(methylamino)-1H-pyrazole—4-carboxamide], the half-inhibitory concentration (IC50) under setting [1] is ≤ 100 nM.
Same read-out and setting: in the case of `C=CC(=O)N1C[C@@H](n2nc(C#Cc3ccc4c(c3)ncn4C3CC3)c(C(N)=O)c2N)C[C@@H]1COC(F)F` [Example 212, 5-Amino-3-[2-(1-cyclopropyl-1,3-benzodiazol-5-yl)ethynyl]-1-[(3S,5R)-5-[(difluoromethoxy)methyl]-1-(prop-2-enoyl)pyrrolidin-3-yl]pyrazole-4-carboxamide] it was ≤ 100 nM; in that of `C=CC(=O)N1C[C@@H](n2nc(C#Cc3ccn4ccnc4c3)c(C(N)=O)c2NC)C[C@@H]1COC` [Example 54, 1-((3S,5R)-1-Acryloyl-5-(methoxymethyl)pyrrolidin-3-yl)-3-(imidazo[1,2-a]pyridin-7-ylethynyl)-5-(methylamino)-1H-pyrazole-4-carboxamide], ≤ 100 nM.
As to `C=CC(=O)N1C[C@@H](n2nc(C#Cc3cc4nc(C)n(C5CC5)c4cc3F)c(C(N)=O)c2N)C[C@@H]1[C@H](C)O` [Example 247, 5-Amino-3-[2-(1-cyclopropyl-6-fluoro-2-methyl-1,3-benzodiazol-5-yl)ethynyl]-1-[(3S,5R)-5-[(1S)-1-hydroxyethyl]-1-(prop-2-enoyl)pyrrolidin-3-yl]pyrazole-4-carboxamide], the IC50 under setting [1] was ≤ 100 nM.
On the same count and under the same terms, in the case of `C=CC(=O)N1C[C@@H](n2nc(C#Cc3cc4ncn(C5CC5)c4cc3Cl)c(C(N)=O)c2N)C[C@@H]1CO` [Example 199, 5-Amino-3-[2-(6-chloro-1-cyclopropyl-1,3-benzodiazol-5-yl)ethynyl]-1-[(3S,5R)-5-(hydroxymethyl)-1-(prop-2-enoyl)pyrrolidin-3-yl]pyrazole-4-carboxamide] it was ≤ 100 nM; in that of `C=CC(=O)N1CC(n2nc(C#Cc3c(F)cc4c(ncn4C4CC4)c3F)c(C(N)=O)c2N)C1` [Example 210, 5-Amino-3-[2-(1-cyclopropyl-4,6-difluoro-1,3-benzodiazol-5-yl)ethynyl]-1-[1-(prop-2-enoyl)azetidin-3-yl]pyrazole-4-carboxamide], ≤ 100 nM; in that of `C=CC(=O)N1C[C@@H](n2nc(C#Cc3c(F)cc4[nH]cnc4c3F)c(C(N)=O)c2NC)C[C@@H]1COC` [Example 177, 1-((3S,5R)-1-acryloyl-5-(methoxymethyl)pyrrolidin-3-yl)-3-((4,6-difluoro-1H-benzo[d]imidazol-5-yl)ethynyl)-5-(methylamino)-1H-pyrazole-4-carboxamide], ≤ 100 nM.
Turning to `C=CC(=O)N1C[C@@H](n2nc(C#Cc3cc4nccc(C)c4cc3Cl)c(C(N)=O)c2NC)C[C@@H]1COC` [Example 281, 3-[2-(6-chloro-4-methylquinolin-7-yl)ethynyl]-1-[(3S,5R)-5-(methoxymethyl)-1-(prop-2-enoyl)pyrrolidin-3-yl]-5-(methylamino)pyrazole-4-carboxamide], the IC50 is < 100 nM.
Consider `C=CC(=O)N1C[C@@H](n2nc(C#Cc3ccc4cc(C)cnc4c3)c(C(N)=O)c2NC)C[C@@H]1COC` [Example 65, 1-((3S,5R)-1-Acryloyl-5-(methoxymethyl)pyrrolidin-3-yl)-5-(methylamino)-3-((3-methylquinolin-7-yl)ethynyl)-1H-pyrazole-4-carboxamide], for which, under setting [1], the IC50 is ≤ 100 nM.
The same measure, in the same setting: in the case of `C=CC(=O)N1C[C@@H](n2nc(C#Cc3cc4nc(C)n(C5CC5)c4cc3Cl)c(C(N)=O)c2N)C[C@@H]1[C@@H](C)O` [Example 244, 1-((3S,5R)-1-Acryloyl-5-((R)-1-hydroxyethyl)pyrrolidin-3-yl)-5-amino-3-((6-chloro-1-cyclopropyl-2-methyl-1H-benzo[d]imidazol-5-yl)ethynyl)-1H-pyrazole-4-carboxamide] it was ≤ 100 nM.
Turning to `C=CC(=O)N1C[C@@H](n2nc(C#Cc3cc4ncn([C@@H]5CC5(F)F)c4cc3Cl)c(C(N)=O)c2NC)C[C@@H]1COC` (single isomer, unassigned) [Example 279], the 50% inhibitory concentration (IC50) under setting [1] is ≤ 100 nM.
The same measure, in the same setting: in the case of `C=CC(=O)N1C[C@@H](n2nc(C#Cc3cc4ncn(C5CC5)c4cc3F)c(C(N)=O)c2NC)C[C@@H]1C` [Example 169, 1-((3S,5S)-1-Acryloyl-5-methylpynolidin-3-yl)-3-((1-cyclopropyl-6-fluoro-1H-benzo[d]imidazol-5-yl)ethynyl)-5-(methylamino)-1H-pyrazole-4-carboxamide] it was ≤ 100 nM; in that of `C=CC(=O)N1C[C@@H](n2nc(C#Cc3ccc4c(c3)nc(C3CC3)n4CC)c(C(N)=O)c2NC)C[C@@H]1COC` [Example 25, 1-((3S,5R)-1-acryloyl-5-(methoxymethyl)pyrrolidin-3-yl)-3-((2-cyclopropyl-1-ethyl-1H-benzo[d]imidazol-5-yl)ethynyl)-5-(methylamino)-1H-pyrazole-4-carboxamide], ≤ 100 nM.
On the same count and under the same terms, in the case of `C=CC(=O)N1CC[C@H](n2nc(C#Cc3cc4ncn(C5CC5)c4c(F)c3F)c(C(N)=O)c2NC)C1` [Example 171] it was ≤ 100 nM.
On the same count and under the same terms, in the case of `C=CC(=O)N1C[C@@H](n2nc(C#Cc3c(F)cc4c(ncn4C4CC4)c3F)c(C(N)=O)c2N)C[C@@H]1CO` [Example 201, 5-Amino-3-[2-(1-cyclopropyl-4,6-difluoro-1,3-benzodiazol-5-yl)ethynyl]-[(3S,5R)-5-(hydroxymethyl)-1-(prop-2-enoyl)pyrrolidin-3-yl]pyrazole-4-carboxamide] it was ≤ 100 nM; in that of `C=CC(=O)N1C[C@@H](n2nc(C#Cc3ccn4ncnc4c3)c(C(N)=O)c2NC)C[C@@H]1COC` [Example 107, 1-[(3S,5R)-5-(Methoxymethyl)-1-(prop-2-enoyl)pyrrolidin-3-yl]-5-(methylamino)-3-(2-[[1,2,4]triazolo[1,5-c]pyridin-7-yl]ethynyl)pyrazole-4-carboxamide], 100 to 1000 nM.
As for `C=CC(=O)N1CC(n2nc(C#Cc3c(F)cc4c(ncn4C4CC4)c3F)c(C(N)=O)c2NC)C1` [Example 193, 3-[2-(1-Cyclopropyl-4,6-difluoro-1,3-benzodiazol-5-yl)ethynyl]-5-(methylamino)-1-[1-(prop-2-enoyl)azetidin-3-yl]pyrazole-4-carboxamide], under setting [1], the IC50 was ≤ 100 nM.
`C=CC(=O)N1C[C@@H](n2nc(C#Cc3cc4nc(C)[nH]c4cc3Cl)c(C(N)=O)c2NC)C[C@@H]1COC(F)(F)F` [Example 87, 3-[2-(6-Chloro-2-methyl-1H-1,3-benzodiazol-5-yl)ethynyl]-5-(methylamino)-1-[(3S,5R)-1-(prop-2-enoyl)-5-[(trifluoromethoxy)methyl]pyrrolidin-3-yl]pyrazole-4-carboxamide]: the IC50 under setting [1] is ≤ 100 nM.
